Where two headings read alike, the source gives them in different places.
Columns and labels:
[1] = system: cytotoxic T-lymphocyte cell line CTLL-2; conditions: 0.3 units/ml IL-2
Description: (§1) T-lymphocyte Proliferation Assays. Cell proliferation in the presence of pre-aerosol compared to post-aerosol concentrations of reduced glutathione was tested on the cytotoxic T-lymphocyte cell lines CT-4R and CTLL-2 (Liang, C-M. et al. (1989) J Biol Chem 264:13519-13523). In 96-well flat bottom plates were placed 50,000 cells of the respective cell lines, suspended in 200 μl Dulbecco's Modified Eagle Medium with 10% fetal calf serum, with either 150 μM or 280 μM reduced glutathione added. The IL-2 dependent cell line CTLL-2 had 0.3 units/ml IL-2 (Genzyme) added in each well. After 18 hr culture in a 10% CO2 incubator at 37° C., 0.5 μCi of ^3 H-thymidine was added for 4 hr, followed by harvesting of cells onto glass fiber filters and scintillation counting for 1 minute. All proliferation assays were done in triplicate.

[2] = system: cytotoxic T-lymphocyte cell line CT-4R
Description: as §1

[3] = in vivo
Excerpt: Study Population. The study population included 13 male and 1 female HIV-seropositive individuals (average age 32±2 yr)(all data are presented as mean ± standard error of the mean; all statistical comparisons were made using the two-tailed Student's t-test). The diagnosis of HIV infection was confirmed by ELISA and Western blot analysis. All belonged to defined risk groups (13 homosexuals, 1 with heterosexual contact with an infected partner). None were smokers, 9 were untreated, and 5 were receiving azidothymidine, and two were receiving once monthly pentamidine by aerosol.
Biologic Samples. Venous plasma and bronchoalveolar lavage fluid were obtained by standard technique (Saltini, C. et al. (1984) Am Rev Resp Dis 130:650-658). Portions of the lavage fluid were taken for glutathione assays (see below), cell counts (total cell and CD4+ and CD8+ subtypes), and for cytocentrifuge preparations for differential counts. The cells were pelleted and the supernatant was used to quantify the amount of ELF recovered using the urea method (Rennard, S.I. et al. (1986) J Appl Physiol 60:532-538).
Study Design. […]
Glutathione Levels and Form. Glutathione levels in venous plasma, and bronchoalveolar lavage fluid were quantified with minor modifications of standard methods, as previously described (Buhl, R. et al (1989) Lancet 2:1294-1298).

[4] = preparation reconstituted in 0.9% saline; cited from earlier work
[5] = in vivo; remark: listed apart in the source
Excerpt: To evaluate possible toxicity of the glutathione aerosol, symptoms, physical examination, routine blood studies, chest x-ray, electrocardiogram, renal function, arterial blood gases, and tests of pulmonary function (forced vital capacity, forced expiratory volume in one second, total lung capacity, diffusing capacity) were followed carefully throughout the study. In addition, visual examination of the respiratory mucosa and analysis of differential cell count in bronchoalveolar lavage fluid were performed before the first aerosol and after administration of the last aerosol.
Study Design. Venous plasma and bronchoalveolar lavage fluid were obtained before GSH administration. An aerosol of 600 mg GSH in 4 ml of saline was then administered over a 25 min period twice a day for three days. Following the last aerosol, venous plasma and bronchoalveolar lavage fluid were again obtained at intervals up to 3 hr after the last aerosol. All measurements were carried out in duplicate.

[6] = system: alveolar macrophages; conditions: 600 mg twice daily for 3 days, 1 hr after last dose, all individuals (p=0.02)
Description: (§2) Ten individuals with IPF (6 male, 4 female, 46±3 yr) defined by standard clinical criteria (Crystal, R. G. et al. (1984) N. Engl. J. Med. 310: 154-166, and 310: 235-244; Turner-Warwick, M. et al. (1980) Thorax. 35: 171-180) received aerosolized GSH; 19 normal nonsmokers (14 male, 5 female, 36±3 yr) (Buhl, R. et al. (1989) Lancet. 2: 1294-1298) served as controls for GSH levels. […] An aerosol of 600 mg GSH was administered every 12 hr for 3 days. Respiratory ELF, obtained by lavage, was evaluated before therapy, and 1 hr after the first or last (sixth) aerosol, and plasma before and 1 hr after the last aerosol. Total glutathione, oxidized glutathione (GSSG) and reduced glutathione (GSH) levels in ELF and plasma were quantified as previously described (Buhl, R. et al. (1990) Proc. Natl. Acad. Sci. USA. 87:4063-4067; Buhl, R. et al. (1989) Lancet. 2: 1294-1298). Spontaneous O2^- release from adherent alveolar macrophages was measured by the reduction of ferricytochrome C (Buhl, R. et al. (1990) Proc. Natl. Acad. Sci. USA. 87:4063-4067). All data are presented as mean ± standard error of the mean. The two-tailed Student's t-test was used to compare ELF glutathione levels in normal and IPF individuals and the results presented as exact p values and degrees of freedom (df). The Wilcoxon paired nonparametric test was used to compare pre- and post-aerosol therapy ELF GSH levels and spontaneous O2^- release by alveolar macrophages, and the results presented as exact p values.

[7] = remark: listed apart in the source
Description: as §2

[8] = intravenous administration; cited from earlier work

N[C@@H](CCC(=O)N[C@@H](CS)C(=O)NCC(=O)O)C(=O)O [GSH, L-γ-glutamyl-L-cysteinyl-glycine]
proliferation (3H-thymidine incorporation) ([1]; CTLL-2, 150 μM reduced glutathione): 5077±69 cpm
proliferation (3H-thymidine incorporation) ([1]; CTLL-2, 280 μM reduced glutathione): 5792±219 cpm
proliferation (3H-thymidine incorporation) ([2]; 150 μM reduced glutathione (pre-therapy concentration)): 7478±550 cpm
proliferation (3H-thymidine incorporation) ([2]; 280 μM reduced glutathione (post-therapy concentration)): 10,752±376 cpm
oxidized glutathione as percentage of total glutathione in ELF [3]: 44±18%
effect of aerosolization on the form of the GSH [4]: did not alter the form
mass median aerodynamic diameter of the aerosol droplets (150 mg/ml GSH in 0.9% NaCl, nebulizer at 40 psi, laser particle-size analysis): 2.8 μm
glutathione in the reduced form (in the aerosolized droplets): 97.0±0.6%
glutathione in the reduced form (pre-aerosol preparations): 98.2±0.1%
inflammation of the lower respiratory tract [5]: did not result in inflammation
physical examination and all clinical studies [5]: remained stable
pulmonary function tests and arterial blood gases [5]: unchanged
spontaneous O2- release by alveolar macrophages [6]: decrease
adverse effects associated with GSH aerosol administration ([7]; 600 mg every 12 hr for 3 days): No adverse effects
ELF oxidized glutathione compared to baseline ([7]; 600 mg twice daily for 3 days, 1 hr after last dose, all individuals (p=0.02)): significant increase
total glutathione in ELF versus pre-therapy ([7]; 1 hr after the first aerosol of 600 mg GSH (p=0.005)): increased
plasma glutathione levels following aerosolization ([7]; 1 hr after the last aerosol (p=0.59)): did not change
average level of total glutathione in ELF versus pre-therapy ([7]; after repeated dosing for 3 days, 1 hr after last aerosol (p=0.55)): higher than the pre-therapy level, but not significantly so
serum half-life [8]: < 2 min

Source: US5989521A, “Method for augmenting a decreased level of reduced glutathione in the lung” (The United States of America as represented by the …, priority 1991, dated 1999)
